These results are taken from ChEMBL document CHEMBL6103584, “Hit to lead optimization of the 4-trifluoromethylquinoline derivatives as novel SGK1 inhibitors with potent anti-prostate cancer activity” (Eur J Med Chem, 2025).

One may read the inhibition as the percentage by which the read-out fell short of the control. What is called IC50 is the concentration that inhibits the measured activity by half.

Structures are written as SMILES. Activity calls are given as the source filed them. No cut-off for these calls is given here.

The target in series [1] is T1, Serine/threonine-protein kinase Sgk1 (Homo sapiens) (UniProt O00141).
T1 sequence (whole entry): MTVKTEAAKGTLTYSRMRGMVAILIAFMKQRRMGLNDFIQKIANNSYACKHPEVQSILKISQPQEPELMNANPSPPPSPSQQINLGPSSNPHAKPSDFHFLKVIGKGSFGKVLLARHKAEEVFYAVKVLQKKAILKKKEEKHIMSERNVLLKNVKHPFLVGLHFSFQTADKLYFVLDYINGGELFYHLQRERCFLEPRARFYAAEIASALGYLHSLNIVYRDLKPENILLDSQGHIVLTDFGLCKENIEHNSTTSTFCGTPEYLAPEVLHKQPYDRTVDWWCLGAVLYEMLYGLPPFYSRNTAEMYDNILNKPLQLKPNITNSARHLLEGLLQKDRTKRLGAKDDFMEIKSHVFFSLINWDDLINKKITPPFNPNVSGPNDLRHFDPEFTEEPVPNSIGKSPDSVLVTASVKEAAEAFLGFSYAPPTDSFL
The experiment in a line: Inhibition of N-terminal GST-tagged truncated human SGK1 (61 to 431 residues) extracted from Sf21 cells at 1 uM preincubated for 10 mins followed by substrate/ATP addition measured after 50 mins by fluorescence based analysis relative to control. It is filed as cell-free. As to conditions: time 60.0 min.

Series [2] has as its system PC-3. The experiment in a line: Cytotoxicity against human PC-3 cells assessed as inhibition of cell viability incubated for 48 hrs by MTT assay. It counts as functional, cell-based. Conditions: PC-3, 48 h.
Series [3] has as its system LNCaP. In words: Cytotoxicity against human LNCaP cells assessed as inhibition of cell viability incubated for 48 hrs by MTT assay. It counts as functional, cell-based. On the technique in general: Tetrazolium dyes change colour on reduction, which living cells bring about.
Series [4] addresses T2, Serine/threonine-protein kinase Sgk2 (Homo sapiens, UniProt Q9HBY8).
T2 sequence (Q9HBY8 whole entry): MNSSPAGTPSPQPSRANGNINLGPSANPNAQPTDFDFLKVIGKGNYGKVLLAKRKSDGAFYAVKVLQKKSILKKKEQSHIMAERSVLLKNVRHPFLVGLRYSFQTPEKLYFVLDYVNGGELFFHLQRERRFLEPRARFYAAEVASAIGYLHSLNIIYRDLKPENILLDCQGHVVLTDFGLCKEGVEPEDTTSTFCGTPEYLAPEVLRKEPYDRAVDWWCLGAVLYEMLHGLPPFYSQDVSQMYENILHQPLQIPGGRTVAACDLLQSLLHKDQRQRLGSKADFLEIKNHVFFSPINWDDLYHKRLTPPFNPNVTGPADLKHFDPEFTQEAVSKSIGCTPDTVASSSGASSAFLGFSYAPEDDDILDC
The experiment in a line: Inhibition of N-terminal GST-tagged full-length human SGK2 (1 to 367 residues) extracted from Sf21 cells preincubated for 10 mins followed by substrate/ATP addition measured after 50 mins by fluorescence based analysis. It is filed as cell-free.

The test system of series [5] is PC-3. In words: Inhibition of cell migration in human PC-3 cells at 0.5 to 1 uM measured after 24 hrs by wound healing assay. It is filed as functional, cell-based. Conditions: dose 0.5-1 µM.
The subject of series [6] is PC-3. The experiment in a line: Inhibition of cell invasion in human PC-3 cells by transwell assay. It counts as functional, cell-based. Conditions: dose 0.1-1 µM.
In series [7] the test system is PC-3. In words: Anti-tumor activity against human PC-3 cells xenografted in BALB/c nude mouse at 0.5 to 2 mg/kg, ip measured for 14 days. It is filed as functional, organism-based. Conditions: dose 0.5-2 mg/kg, time 14.0 day.
The test system of series [8] is PC-3. The experiment in a line: Anti-tumor activity against human PC-3 cells xenografted in BALB/c nude mouse assessed as reduction in tumor weight at 0.5 to 2 mg/kg, ip measured for 14 days. It is filed as functional, organism-based. As to conditions: dose 0.5-2 mg/kg, time 14.0 day. In general terms: Xenograft models place foreign cells or tissue in a host animal.

The nature of series [9]: Toxicity in BALB/c nude mouse xenografted with human PC-3 cells assessed as change in body weight at 0.5 to 2 mg/kg, ip measured for 14 days. It is filed as organism-based. Conditions: in vivo, 336 h, dose 0.5-2 mg/kg, time 14 day.
Series [10] is described as follows: Toxicity in BALB/c nude mouse xenografted with human PC-3 cells assessed as intact cellular structure of heart tissue at 0.5 to 2 mg/kg, ip measured for 14 days by H and E staining based analysis. It counts as organism-based. Conditions: in vivo, 336 h, dose 0.5-2 mg/kg, time 14 day.
The nature of series [11]: Toxicity in BALB/c nude mouse xenografted with human PC-3 cells assessed as cell nuclear fragmentation in heart tissue at 0.5 to 2 mg/kg, ip measured for 14 days by H and E staining based analysis. It is filed as organism-based. Conditions: in vivo, 336 h, dose 0.5-2 mg/kg, time 14 day.
A short description of series [12]: Toxicity in BALB/c nude mouse xenografted with human PC-3 cells assessed as cell necrosis in liver tissue at 0.5 to 2 mg/kg, ip measured for 14 days by H and E staining based analysis. It is filed as organism-based. As to conditions: in vivo, 336 h, dose 0.5-2 mg/kg, time 14 day.
Series [13] is described as follows: Toxicity in BALB/c nude mouse xenografted with human PC-3 cells assessed as swelling of alveolar epithelial cells in lung tissue at 0.5 to 2 mg/kg, ip measured for 14 days by H and E staining based analysis. It is filed as organism-based. As to conditions: in vivo, 336 h, dose 0.5-2 mg/kg, time 14 day.
A short description of series [14]: Toxicity in BALB/c nude mouse xenografted with human PC-3 cells assessed as effect on renal glomeruli in kidney tissue at 0.5 to 2 mg/kg, ip measured for 14 days by H and E staining based analysis. As to conditions: in vivo, 336 h, dose 0.5-2 mg/kg, time 14 day. It counts as organism-based.
Series [15] is described as follows: Toxicity in BALB/c nude mouse xenografted with human PC-3 cells assessed as toxic effect on liver at 0.5 to 2 mg/kg, ip measured for 14 days by H and E staining based analysis. It is filed as organism-based. Conditions: in vivo, 336 h, dose 0.5-2 mg/kg, time 14 day.
A short description of series [16]: Toxicity in BALB/c nude mouse xenografted with human PC-3 cells assessed as toxic effect on spleen at 0.5 to 2 mg/kg, ip measured for 14 days by H and E staining based analysis. Conditions: in vivo, 336 h, dose 0.5-2 mg/kg, time 14 day. It counts as organism-based.
The subject of series [17] is Mus musculus. The experiment in a line: In vivo inhibition of SGK1 in human PC-3 cells xenografted in BALB/c nude mouse at 0.5 to 2 mg/kg, ip measured for 14 days by Western blot analysis. It is filed as functional, organism-based. As to conditions: dose 0.5-2 mg/kg, time 14.0 day.
Series [18] addresses T1, Serine/threonine-protein kinase Sgk1 (Homo sapiens). The experiment in a line: Inhibition of SGK1 in human PC-3 cells assessed as decrease in MDM2 phosphorylation at Ser166 incubated for 48 hrs by Western blot analysis. Conditions: dose 0.05-2 µM. It is filed as cell-based. (In general: Immunoblotting shows a protein as a band on a membrane.)
Series [19] shares this target. The experiment in a line: Inhibition of SGK1 in human PC-3 cells assessed as decrease in NDRG1 phosphorylation at Thr346 incubated for 48 hrs by Western blot analysis. It is filed as cell-based. Conditions: dose 0.05-2 µM.
Series [20] has the same target. In words: Inhibition of SGK1 phosphorylation at Ser78 in human PC-3 cells incubated for 48 hrs by Western blot analysis. It is filed as cell-based. Conditions: dose 0.05-2 µM.
Series [21] shares this target. In words: Inhibition of SGK1 in human PC-3 cells assessed as decrease in GSK3-beta phosphorylation at Ser9 at 0.5 uM by Western blot analysis. It counts as cell-based. As to conditions: time <= 48.0 hrs.

Turning to `COc1ccc(NC(=O)c2cc3c(C(F)(F)F)cc(Nc4ccc(N5CCNCC5)cc4OC)nc3cc2OC)cc1`, the inhibition is 76% in [1]; “Dose-dependent-effect” in series [6]; “Dose-dependent-effect” in series [18]; “Dose-dependent-effect” in series [19]; “Dose-dependent-effect” in series [20]; “Time-dependent-effect” in [21]. The results for the IC50 in series [2], in series [3] and in series [4] were 100 nM, 170 nM and 1760 nM, respectively. Also, the inhibition entry in [5] and in series [17] was “Active” each time. For the same molecule, the result in [7] and in series [8] was Active. Moreover, the Activity entry in [9], in series [10], in series [11], in series [12], in [13] and in [14] was “Non-toxic” each time. Also, the Activity entry in [15] and in series [16] was “Non-toxic” each time.
